Assay results from patent publication US20240025919A1, “AZA-TETRACYCLIC OXAZEPINE COMPOUNDS AND USES THEREOF” (Genentech, Inc., priority 2022, published 2024).

Tests used:
[1] = biological target: T1, KRAS WT (Homo sapiens (Human), UniProt P01116); assay: KRAS WT Biochemical Assay, BODIPY-GDP Exchange TR-FRET (Example 502; 0.06 nM KRAS WT, 15 nM GDP, 300 nM SOS1, 120-minute incubation); conditions: read-out: KRas HTRF IC50
Experimental: Example 502: KRAS WT Biochemical Assay, BODIPY-GDP Exchange TR-FRET. Biochemical compound potencies are assessed by evaluating inhibition of SOS1-mediated nucleotide exchange in KRAS WT. In this assay, the SOS1-promoted exchange of fluorescently-labeled GDP (BOPIDY-GDP) is monitored by time-resolved fluorescence resonance energy transfer (TR-FRET). Compounds solubilized in DMSO are dispensed as concentration series into 384-well white assay plates. A preformed complex of 0.06 nM biotin-tagged recombinant human KRAS WT, 15 nM GDP and 0.06 nM terbium-labeled streptavidin (CisBIO) prepared in 10 uL/well assay buffer (20 mM HEPES, pH 7.5, 50 mM NaCl, 10 mM MgCl2, 0.01% Tween-20 and 1 mM dithiothreitol) is added and allowed to incubate for 10-minutes at room temperature. The reaction is initiated with the addition of 5 uL 300 nM recombinant human SOS1 and 300 nM BODIPY-GDP in assay buffer. After a 120-minute incubation, the fluorescence is measured with excitation at 337 nm and emission at 490 and 520 nm. The TR-FRET ratio is determined as the fluorescence at 520 nm divided by the fluorescence at 490 nm multiplied by 10,000. The results are normalized to percent inhibition based on control samples: DMSO (0% inhibition) and control compound at a concentration that inhibits completely (100% inhibition). The normalized TR-FRET results are plotted against compound concentration, and the data are fit to a 4-parameter Hill equation to determine the IC50 values.

[2] = biological target: KRAS G12D (Homo sapiens (Human), UniProt P01116, G12D); assay: KRAS G12D LoEnz Biochemical Assay, BODIPY-GDP Exchange TR-FRET (SOS1-mediated nucleotide exchange); conditions: read-out: KRas (G12D) GDP HTRF IC50
Sequence of KRAS G12D (P01116-2 other isoform, or with tags, fused parts or gaps G12D): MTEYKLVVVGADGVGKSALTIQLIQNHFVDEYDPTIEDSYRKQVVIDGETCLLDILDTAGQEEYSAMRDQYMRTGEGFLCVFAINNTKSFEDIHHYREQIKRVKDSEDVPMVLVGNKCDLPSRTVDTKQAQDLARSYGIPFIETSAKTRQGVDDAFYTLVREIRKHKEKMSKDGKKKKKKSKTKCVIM

[3] = biological target: T1, KRAS WT; assay: KRAS WT Biochemical Assay, BODIPY-GDP Exchange TR-FRET (Example 501; 3 nM KRAS WT, 3 nM SOS1, 60-minute incubation); conditions: read-out: KRas HTRF IC50
Outline: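 SOS1-mediated exchange assay: 3 nM biotin-KRAS WT with terbium-streptavidin, started with 3 nM SOS1 and 300 nM BODIPY-GDP, HEPES pH 7.5 with MgCl2. TR-FRET (520/490 nm) read after 60 min; normalized to DMSO and full-inhibition control, IC50 from 4-parameter Hill fit.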

T1 sequence (P01116-2 other isoform, or with tags, fused parts or gaps): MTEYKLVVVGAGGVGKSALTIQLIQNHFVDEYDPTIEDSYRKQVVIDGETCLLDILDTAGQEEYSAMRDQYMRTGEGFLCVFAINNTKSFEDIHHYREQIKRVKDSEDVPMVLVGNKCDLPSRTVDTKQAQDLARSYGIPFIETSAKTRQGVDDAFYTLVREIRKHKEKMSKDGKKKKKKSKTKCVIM

SMILES	IC50 [1] [nM]	IC50 [2] [nM]	IC50 [3] [nM]
Cc1c(F)c(N)cc(-c2nc3c4c(nc(OC[C@H]5[C@@H](O)CCN5C)nc4c2F)N2C[C@H]4CC[C@H](N4)[C@H]2[C@H](C)O3)c1C(F)(F)F [Compound 162, (2S,3S)-2-((((5S,5aS,6S,9R)-2-(5-Amino-4-fluoro-3-methyl-2-(trifluoromethyl)phenyl)-1-fluoro-5-methyl-5a,6,7,8,9,10-hexahydro-5H-4-oxa-3,10a,11,13,14-pentaaza-6,9-methanonaphtho[1,8-ab]heptalen-12-yl)oxy)methyl)-1-methylpyrrolidin-3-ol]	41.3	0.13	–
Cc1cc(N)c(F)c(-c2nc3c4c(nc(OC[C@@H]5CC[C@H]6COCCN65)nc4c2F)N2C[C@H]4CC[C@H](N4)[C@H]2[C@H](C)O3)c1C=C(F)F [Compound 99, 4-(2,2-Difluorovinyl)-2-fluoro-3-((5S,5aS,6S,9R)-1-fluoro-12-(((6S,8aS)-hexahydro-1H-pyrrolo[2,1-c][1,4]oxazin-6-yl)methoxy)-5-methyl-5a,6,7,8,9,10-hexahydro-5H-4-oxa-3,10a,11,13,14-pentaaza-6,9-methanonaphtho[1,8-ab]heptalen-2-yl)-5-methylaniline]	506	2.09	–
Cc1c(F)c(N)cc(-c2nc3c4c(nc(OCC56COC(CN5C)C6)nc4c2F)N2C[C@H]4CC[C@H](N4)[C@H]2[C@H](C)O3)c1C(F)(F)F [Compound 132, 2-Fluoro-5-((5S,5aS,6S,9R)-1-fluoro-5-methyl-12-((5-methyl-2-oxa-5-azabicyclo[2.2.1]heptan-4-yl)methoxy)-5a,6,7,8,9,10-hexahydro-5H-4-oxa-3,10a,11,13,14-pentaaza-6,9-methanonaphtho[1,8-ab]heptalen-2-yl)-3-methyl-4-(trifluoromethyl)aniline]	291	1.47	–
C[C@@H]1Oc2nc(-c3nc(N)c(F)cc3C(F)(F)F)c(F)c3nc(OC[C@@]45CCCN4CC4(CC4(F)F)C5)nc(c23)N2C[C@H]3CC[C@H](N3)[C@@H]12 (stereo partly drawn) [Compound 86, 6-((5S,5aS,6S,9R)-12-(((7a′S)-2,2-difluorodihydro-1′H,3′H-spiro-[cyclopropane-1,2′-pyrrolizin]-7a′(5′H)-yl)methoxy)-1-fluoro-5-methyl-5a,6,7,8,9,10-hexahydro-5H-4-oxa-3,10a,11,13,14-pentaaza[6,9]methanonaphtho[1,8-ab]heptalen-2-yl)-3-fluoro-5-(trifluoromethyl)pyridin-2-amine]	248	4.67	–
C=C1CN2CCC[C@@]2(COc2nc3c4c(nc(-c5cc(N)c(F)c(C)c5C(F)(F)F)c(F)c4n2)O[C@@H](C)[C@@H]2[C@@H]4CC[C@H](CN32)N4)C1 [Compound 57, 2-Fluoro-5-((5S,5aS,6S,9R)-1-fluoro-5-methyl-12-(((S)-2-methylenetetrahydro-1H-pyrrolizin-7a(5H)-yl)methoxy)-5a,6,7,8,9,10-hexahydro-5H-4-oxa-3,10a,11,13,14-pentaaza-6,9-methanonaphtho[1,8-ab]heptalen-2-yl)-3-methyl-4-(trifluoromethyl) aniline]	0.633	0.16	–
Cc1c(F)c(N)cc(-c2nc3c4c(nc(OCC5(CN6CC7(COC7)C6)CC5)nc4c2F)N2C[C@H]4CC[C@H](N4)[C@H]2[C@H](C)O3)c1C(F)(F)F [Compound 174, 5-((5S,5aS,6S,9R)-12-((1-((2-Oxa-azaspiro[3.3]heptan-6-yl)methyl)cyclopropyl)methoxy)-1-fluoro-5-methyl-5a,6,7,8,9,10-hexahydro-5H-4-oxa-3,10a,11,13,14-pentaaza[6,9]methanonaphtho[1,8-ab]heptalene-2-yl)-2-fluoro-3-methyl-4-(trifluoromethyl)aniline]	3.04	3.39	–
Cc1c(F)c(N)cc(-c2nc3c4c(nc(OC[C@@H]5CC[C@@H]6C[C@@H](C(=O)N(C)C)CCN65)nc4c2F)N2C[C@H]4CC[C@H](N4)[C@H]2[C@H](C)O3)c1C(F)(F)F (single isomer, unassigned) [133 (isomer 1)]	13.6	0.12	–
Cc1nc(N)cc(-c2nc3c4c(nc(OC[C@@H]5CC[C@H]6COCCN65)nc4c2F)N2C[C@H]4CC[C@H](N4)[C@H]2[C@H](C)O3)c1C(F)(F)F [Compound 112, 4-((5S,5aS,6S,9R)-1-fluoro-12-(((6S,8aS)-hexahydro-1H-pyrrolo[2,1-c][1,4]oxazin-6-yl)methoxy)-5-methyl-5a,6,7,8,9,10-hexahydro-5H-4-oxa-3,10a,11,13,14-pentaaza-6,9-methanonaphtho[1,8-ab]heptalen-2-yl)-6-methyl-5-(trifluoromethyl)pyridin-2-amine]	62.8	0.48	–
C[C@@H]1Oc2nc(-c3cc(N)ccc3C(F)(F)F)c(F)c3nc(OC[C@@]45CCCN4C[C@H](F)C5)nc(c23)N2C[C@H]3CC[C@H](N3)[C@@H]12 [Compound 72, 3-((5S,5aS,6S,9R)-1-Fluoro-12-(((2R,7aS)-2-fluorotetrahydro-1H-pyrrolizin-7a(5H)-yl)methoxy)-5-methyl-5a,6,7,8,9,10-hexahydro-5H-4-oxa-3,10a,11,13,14-pentaaza-6,9-methanonaphtho[1,8-ab]heptalen-2-yl)-4-(trifluoromethyl)aniline]	12.9	0.28	–
Cc1c(F)c(N)cc(-c2nc3c4c(nc(OCC56C[C@H](F)CN5C[C@@H](F)C6)nc4c2F)N2C[C@H]4CC[C@H](N4)[C@H]2[C@H](C)O3)c1C(F)(F)F [Compound 139, 5-((5S,5aS,6S,9R)-12-(((2S,6S)-2,6-Difluorotetrahydro-1H-pyrrolizin-7a(5H)-yl)methoxy)-1-fluoro-5-methyl-5a,6,7,8,9,10-hexahydro-5H-4-oxa-3,10a,11,13,14-pentaaza-6,9-methanonaphtho[1,8-ab]heptalen-2-yl)-2-fluoro-3-methyl-4-(trifluoromethyl)aniline]	780	2.41	–
Cc1c(F)c(N)cc(-c2nc3c4c(nc(OC[C@H](F)CN5CC6(COC6)C5)nc4c2F)N2C[C@H]4CC[C@H](N4)[C@H]2[C@H](C)O3)c1C(F)(F)F [Compound 144]	99.5	0.5	–
C[C@@H]1Oc2nc(-c3cc(N)c(F)c(F)c3CC(F)F)c(F)c3cc(OC[C@@H]4CC[C@H]5COCCN54)nc(c23)N2C[C@H]3CC[C@H](N3)[C@@H]12 [Compound 158, 4-(2,2-Difluoroethyl)-2,3-difluoro-5-((5S,5aS,6S,9R)-1-fluoro-13-(((6S,8aS)-hexahydro-1H-pyrrolo[2,1-c][1,4]oxazin-6-yl)methoxy)-5-methyl-5a,6,7,8,9,10-hexahydro-5H-6,9-epiminoazepino[2′,1′:3,4][1,4]oxazepino[5,6,7-ij][2,7-]naphthyridin-2-yl)aniline]	121	–	–
Cc1nc(N)cc(-c2nc3c4c(nc(OC[C@@]56CCCN5C[C@H](F)C6)nc4c2F)N2C[C@H]4CC[C@H](N4)[C@H]2[C@H](C(F)(F)F)O3)c1C(F)(F)F [Compound 242, 4-((5R,5aS,6S,9R)-1-Fluoro-12-(((2R,7aS)-2-fluorotetrahydro-1H-pyrrolizin-7a(5H)-yl)methoxy)-5-(trifluoromethyl)-5a,6,7,8,9,10-hexahydro-5H-4-oxa-3,10a,11,13,14-pentaaza-6,9-methanonaphtho[1,8-ab]heptalen-2-yl)-6-methyl-5-(trifluoromethyl)pyridin-2-amine]	–	0.33	5.29
C[C@@H]1Oc2nc(-c3cc(N)c(F)cc3CC(F)F)c(F)c3nc(OC[C@@]45CCCN4C[C@H](F)C5)nc(c23)N2C[C@H]3CC[C@H](N3)[C@@H]12 [Compound 187, 4-(2,2-Difluoroethyl)-2-fluoro-5-((5S,5aS,6S,9R)-1-fluoro-12-(((2R,7aS)-2-fluorotetrahydro-1H-pyrrolizin-7a(5H)-yl)methoxy)-5-methyl-5a,6,7,8,9,10-hexahydro-5H-4-oxa-3,10a,11,13,14-pentaaza-6,9-methanonaphtho[1,8-ab]heptalene-2-yl)aniline]	–	0.51	163
Cc1nc(N)cc(-c2nc3c4c(nc(OC[C@@]56CCCN5C[C@H](F)C6)nc4c2F)N2C[C@H]4CC[C@H](N4)[C@H]2[C@H](C)O3)c1CC(F)F [Compound 189, 5-(2,2-Difluoroethyl)-4-((5S,5aS,6S,9R)-1-fluoro-12-(((2R,7aS)-2-fluorotetrahydro-1H-pyrrolizin-7a(5H)-yl)methoxy)-5-methyl-5a,6,7,8,9,10-hexahydro-5H-4-oxa-3,10a,11,13,14-pentaaza-6,9-methanonaphtho[1,8-ab]heptalene-2-yl)-6-methylpyridin-2-amine]	–	2.31	252
